The test system of this assay is T1, BLC23O.
T1 construct: 6xHis-tag, expressed in E. coli BL21 (DE3); Ni-NTA and size exclusion; Mn2+-dependent
Put plainly: absorbance of ring-cleavage product at […] nm, Michaelis-Menten fit. Format: biochemical, Halalkalibacterium ligniniphilum. The settings on record: 50 mM HEPES pH 7.6, 10 μM Mn2+, 32.5 °C (optimal conditions).

Experimental findings from paper PMC10620931, “Assay Development for Metal-Dependent Enzymes—Influence of Reaction Buffers on Activities and Kinetic Characteristics” (ACS Omega, 2023) are described below.

For the compound `Cc1cccc(O)c1O` [3-methylcatechol], the Km is 540 ± 20 µM.
